± gives the expanded uncertainty stated by the source.
Details: for Triple point temperature: From the change of vapor pressure slope; for vapor or sublimation pressure: Crystal, Rate of evaporation

SMILES	Triple point temperature (Crystal 1)	Triple point temperature (Crystal 2)	vapor or sublimation pressure (570 K)	vapor or sublimation pressure (580 K)	vapor or sublimation pressure (590 K)	vapor or sublimation pressure (600 K)	vapor or sublimation pressure (610 K)	vapor or sublimation pressure (620 K)	vapor or sublimation pressure (630 K)	vapor or sublimation pressure (640 K)
[Cl][Cu] [copper monochloride]	701 ± 6 K	688 ± 6 K	–	–	–	–	–	–	–	–
[Cl-].[Cl-].[Cl-].[In+3] [indium chloride]	–	–	0.004417 ± 0.00044 kPa	0.007462 ± 0.00075 kPa	0.01238 ± 0.0012 kPa	0.02021 ± 0.002 kPa	0.03245 ± 0.0032 kPa	0.05132 ± 0.0051 kPa	0.07998 ± 0.008 kPa	0.1229 ± 0.012 kPa

From the NIST ThermoML archive (doi:10.1016/j.tca.2015.07.018)
